# Reference: ChEMBL document CHEMBL2439984, “Design, synthesis, and bioevaluation of viral 3C and 3C-like protease inhibitors” (Bioorg Med Chem Lett, 2013)
# Activity calls are given as the source filed them. No cut-off for these calls is given here.
# Key:
# Norwalk virus = experiment: Antiviral activity against Norwalk virus infected in human HG23 cells; type: functional, cell-based
# [1] = Inhibition of Human rhinovirus sp. […] protease by FRET assay
# [2] = Antiviral activity against Murine norovirus 1 infected in human […] cells; type: functional, cell-based; details: Norwalk virus
# [3] = Cytotoxicity against human HG23 cells after 72 hrs by crystal violet staining-based assay; type: cell-based
# [4] = Antiviral activity against Human rhinovirus 18 infected in human […] cells; type: functional, cell-based, Human rhinovirus A18; details: Rhinovirus A
# [5] = Inhibition of Norovirus MD145 protease 3C by FRET assay
# Human coronavirus 229E = experiment: Antiviral activity against Coronavirus 229E infected in human […] cells; type: functional, organism-based
# [6] = Inhibition of SARS coronavirus protease 3C by FRET assay; design: species or system Severe acute respiratory syndrome-related coronavirus
# [7] = molecular target: Prothrombin (Homo sapiens) (UniProt P00734); experiment: Inhibition of thrombin (unknown origin) using N-p-tosyl-Gly-Pro-Lys-pNa as substrate up to 10 uM preincubated for 30 mins prior to substrate addition measured for 120 seconds by spectrophotometric analysis
# Homo sapiens = species on record: Homo sapiens; experiment: Inhibition of alpha-chymotrypsin (unknown origin) using Suc-Ala-Ala-Pro-Phe as substrate up to 10 uM preincubated for 10 mins prior to substrate addition measured for 60 seconds by spectrophotometric analysis
# Trypsin (Homo sapiens) = Trypsin (Homo sapiens) (UniProt P07477+P07478+P35030); experiment: Inhibition of trypsin (unknown origin) using BAPNA as substrate up to 10 uM preincubated for 10 mins prior to substrate addition measured for 300 seconds by spectrophotometric analysis; type: protein assay
# [8] = molecular target: T1, Neutrophil elastase (Homo sapiens) (UniProt P08246); experiment: Inhibition of human neutrophil elastase using MeO-Suc-Ala-Ala-Pro-Val-pNa as substrate up to 10 uM preincubated for 30 mins prior to substrate addition measured for 120 seconds by spectrophotometric analysis
# T1 sequence (whole entry): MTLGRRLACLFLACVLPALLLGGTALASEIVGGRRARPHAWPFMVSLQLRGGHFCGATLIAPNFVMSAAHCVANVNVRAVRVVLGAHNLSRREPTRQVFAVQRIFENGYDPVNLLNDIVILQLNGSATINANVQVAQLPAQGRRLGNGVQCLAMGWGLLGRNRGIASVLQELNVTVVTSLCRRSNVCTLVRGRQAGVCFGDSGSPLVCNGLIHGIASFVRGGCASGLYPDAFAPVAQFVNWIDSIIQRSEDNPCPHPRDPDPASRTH
# [9] = molecular target: Replicase polyprotein 1ab (Severe acute respiratory syndrome-related coronavirus, UniProt P0C6X7); experiment: Inhibition of SARS coronavirus 3C-like protease by FRET assay
smiles,measurement,setting,value
CC(C)C[C@H](NC(=O)[C@H](Cc1cccc2ccccc12)NC(=O)OCc1ccccc1)C(=O)N[C@@H](C[C@@H]1CCNC1=O)C(=O)C(=O)NC(C)C,EC50,Norwalk virus,4200 nM
same,IC50,[1],120 nM
same,EC50,[2],4200 nM
same,CC50 at 72 h,[3],> 100000 nM
same,EC50,[4],30 nM
same,IC50,[5],3100 nM
same,EC50,Human coronavirus 229E,500 nM
same,IC50,[6],610 nM
CC(C)C[C@H](NC(=O)[C@H](Cc1cccc2ccccc12)NC(=O)OCc1ccccc1)C(=O)N[C@@H](C[C@@H]1CCNC1=O)C(O)S(=O)(=O)O (stereo partly specified),EC50,Norwalk virus,40 nM
CC(C)C[C@H](NC(=O)[C@H](Cc1ccc2ccccc2c1)NC(=O)OCc1ccccc1)C(=O)N[C@H](C=O)C[C@@H]1CCNC1=O,EC50,Norwalk virus,80 nM
CC(C)C[C@H](NC(=O)[C@H](Cc1cccc2ccccc12)NC(=O)OCc1ccccc1)C(=O)N[C@H](C=O)C[C@@H]1CCNC1=O,EC50,Norwalk virus,40 nM
same,inhibition,[7],inactive
same,inhibition,Homo sapiens,inactive
same,IC50,[1],150 nM
same,EC50,[2],600 nM
same,inhibition,Trypsin (Homo sapiens),inactive
same,CC50 at 72 h,[3],87000 nM
same,EC50,[4],15 nM
same,IC50,[5],510 nM
same,inhibition,[8],inactive
same,EC50,Human coronavirus 229E,200 nM
same,IC50,[9],230 nM
CCOP(=O)(OCC)C(O)[C@H](C[C@@H]1CCNC1=O)NC(=O)[C@H](CC(C)C)NC(=O)[C@H](Cc1cccc2ccccc12)NC(=O)OCc1ccccc1 (stereo partly specified),EC50,Norwalk virus,100 nM
CC(C)C[C@H](NC(=O)[C@@H](Cc1cccc2ccccc12)NC(=O)OCc1ccccc1)C(=O)N[C@H](C=O)C[C@@H]1CCNC1=O,EC50,Norwalk virus,450 nM
CC(C)C[C@H](NC(=O)[C@H](Cc1ccc(-c2ccccc2)cc1)NC(=O)OCc1ccccc1)C(=O)N[C@H](C=O)C[C@@H]1CCNC1=O,EC50,Norwalk virus,50 nM
CC(C)C[C@H](NC(=O)[C@H](Cc1ccccc1)NC(=O)OCc1ccccc1)C(=O)N[C@H](C=O)C[C@@H]1CCNC1=O,EC50,Norwalk virus,60 nM
